According to PMC9974930 (Journal of medicinal chemistry, 2023):

Biological target: T1, recombinant human sEH (HsEH) (Homo sapiens, UniProt P34913)
T1 sequence (P34913 1-555): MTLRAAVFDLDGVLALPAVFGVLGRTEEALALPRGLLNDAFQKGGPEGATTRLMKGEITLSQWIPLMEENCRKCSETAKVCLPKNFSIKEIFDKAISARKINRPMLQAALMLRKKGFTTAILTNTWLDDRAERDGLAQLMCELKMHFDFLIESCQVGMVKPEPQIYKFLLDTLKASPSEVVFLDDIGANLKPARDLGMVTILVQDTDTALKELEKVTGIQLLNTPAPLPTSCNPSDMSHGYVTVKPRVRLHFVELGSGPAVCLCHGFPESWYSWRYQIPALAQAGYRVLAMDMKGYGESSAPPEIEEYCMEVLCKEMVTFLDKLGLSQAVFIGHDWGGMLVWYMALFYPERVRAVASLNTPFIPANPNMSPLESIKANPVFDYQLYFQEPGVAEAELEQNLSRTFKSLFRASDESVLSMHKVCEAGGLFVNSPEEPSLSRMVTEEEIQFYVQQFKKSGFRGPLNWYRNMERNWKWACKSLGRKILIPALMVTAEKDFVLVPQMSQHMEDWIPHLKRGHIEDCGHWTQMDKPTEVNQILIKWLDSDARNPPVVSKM
Test: biochemical
Details: not given

Molecule `C[C@]12C[C@@H]3C[C@](C)(C1)C[C@@](NC(=O)Nc1ccc(C(=O)N4CCCC(C(=O)O)C4)cc1F)(C3)C2` (stereo partly drawn) [A, 1-(4-(3-((1r,3R,5S,7r)-3,5-Dimethyladamantan-1-yl)ureido)-3-fluorobenzoyl)piperidine-3-carboxylic acid] has an IC50 of 4 nM.

Same assay, conditions: LLE = pIC50-cLogP

Compared with `C[C@]12C[C@@H]3C[C@](C)(C1)C[C@@](NC(=O)Nc1ccc(CN4CCCC(C(=O)NC(CO)(CO)CO)C4)cc1F)(C3)C2` (stereo partly drawn) [D8, N-(1,3-Dihydroxy-2-(hydroxymethyl)propan-2-yl)-1-(4-(3-((1r,3R,5S,7r)-3,5-dimethyladamantan-1-yl)ureido)-3-fluorobenzyl)piperidine-3-carboxamide], `C[C@]12C[C@@H]3C[C@](C)(C1)C[C@@](NC(=O)Nc1ccc(CN4CCC(C(=O)NC(CO)(CO)CO)CC4)cc1F)(C3)C2` [E4, N-(1,3-Dihydroxy-2-(hydroxymethyl)propan-2-yl)-1-(4-(3-((1r,7r)-3,5-dimethyladamantan-1-yl)ureido)-3-fluorobenzyl)piperidine-4-carboxamide] is lower in “LLE (ligand lipophilicity efficiency)” value: 7.992 for the first, 6.459 for the second.

Going from `C[C@]12C[C@@H]3C[C@](C)(C1)C[C@@](NC(=O)Nc1ccc(CN4CCCC(C(=O)NCCO)C4)cc1F)(C3)C2` (stereo partly drawn) [D6, 1-(4-(3-((1r,3R,5S,7r)-3,5-Dimethyladamantan-1-yl)ureido)-3-fluorobenzyl)-N-(2-hydroxyethyl)piperidine-3-carboxamide] to `CC(O)CNC(=O)C1CCCN(Cc2ccc(NC(=O)N[C@@]34C[C@@H]5C[C@@](C)(C[C@@](C)(C5)C3)C4)c(F)c2)C1` (stereo partly drawn) [D4, 1-(4-(3-((1r,3R,5S,7r)-3,5-Dimethyladamantan-1-yl)ureido)-3-fluorobenzyl)-N-(2-hydroxypropyl)piperidine-3-carboxamide], the “LLE (ligand lipophilicity efficiency)” value falls from 6.145 to 6.119.

First: C=C(C)C(=O)N1CCC(CC(=O)N2CCCN(C(=O)c3ccc(NC(=O)N[C@@]45C[C@@H]6C[C@@](C)(C[C@@](C)(C6)C4)C5)cc3)CC2)CC1 [H3, 1-((1r,3R,5S,7r)-3,5-Dimethyladamantan-1-yl)-3-(4-(4-(2-(1-methacryloylpiperidin-4-yl)acetyl)-1,4-diazepane-1-carbonyl)phenyl)urea]
Second: CCC(=O)N1CCC(CC(=O)N2CCCN(C(=O)c3ccc(NC(=O)N[C@@]45C[C@@H]6C[C@@](C)(C[C@@](C)(C6)C4)C5)c(F)c3)CC2)CC1 [H1, 1-((1r,3R,5S,7r)-3,5-Dimethyladamantan-1-yl)-3-(2-fluoro-4-(4-(2-(1-propionylpiperidin-4-yl)acetyl)-1,4-diazepane-1-carbonyl)phenyl)urea]
The “LLE (ligand lipophilicity efficiency)” value of the first is lower: 5.530 for the first, 5.848 for the second.

Going from `C[C@]12C[C@@H]3C[C@](C)(C1)C[C@@](NC(=O)Nc1ccc(C(=O)N4CCCC(C(=O)O)C4)cc1F)(C3)C2` (stereo partly drawn) [A, 1-(4-(3-((1r,3R,5S,7r)-3,5-Dimethyladamantan-1-yl)ureido)-3-fluorobenzoyl)piperidine-3-carboxylic acid] to `CC(O)CNC(=O)C1CCCN(C(=O)c2ccc(NC(=O)N[C@]34C[C@@H]5C[C@@](C)(C[C@@](C)(C5)C3)C4)c(F)c2)C1` (stereo partly drawn) [B3, 1-(4-(3-((1r,3R,5S,7S)-3,5-Dimethyladamantan-1-yl)ureido)-3-fluorobenzoyl)-N-(2-hydroxypropyl)piperidine-3-carboxamide], the “LLE (ligand lipophilicity efficiency)” value rises from 4.979 to 6.779.

Compared with `C[C@]12C[C@@H]3C[C@](C)(C1)C[C@@](NC(=O)Nc1ccc(CN4CCC(C(=O)NC(CO)CO)CC4)cc1F)(C3)C2` [E3, N-(1,3-Dihydroxypropan-2-yl)-1-(4-(3-((1r,7r)-3,5-dimethyladamantan-1-yl)ureido)-3-fluorobenzyl)piperidine-4-carboxamide], `C[C@]12C[C@@H]3C[C@](C)(C1)C[C@@](NC(=O)Nc1ccc(CN4CCCC(C(=O)NC(CO)CO)C4)cc1F)(C3)C2` (stereo partly drawn) [D7, N-(1,3-Dihydroxypropan-2-yl)-1-(4-(3-((1r,3R,5S,7r)-3,5-dimethyladamantan-1-yl)ureido)-3-fluorobenzyl)piperidine-3-carboxamide] is higher in “LLE (ligand lipophilicity efficiency)” value: 5.090 for the first, 7.008 for the second.

Compared with `C[C@]12C[C@@H]3C[C@](C)(C1)C[C@@](NC(=O)Nc1ccc(C(=O)NC4CCC(C(=O)N5CCC(CCO)CC5)CC4)cc1F)(C3)C2` (stereo partly drawn) [C2, 4-(3-((1r,3R,5S,7r)-3,5-Dimethyladamantan-1-yl)ureido)-3-fluoro-N-(4-(4-(2-hydroxyethyl)piperidine-1-carbonyl)cyclohexyl)benzamide], `CC(O)CNC(=O)C1CCC(NC(=O)c2ccc(NC(=O)N[C@@]34C[C@@H]5C[C@@](C)(C[C@@](C)(C5)C3)C4)c(F)c2)CC1` (stereo partly drawn) [C4, 4-(3-((1r,3R,5S,7r)-3,5-Dimethyladamantan-1-yl)ureido)-3-fluoro-N-(4-((2-hydroxypropyl)carbamoyl)cyclohexyl)benzamide] is higher in “LLE (ligand lipophilicity efficiency)” value: 3.655 for the first, 5.438 for the second.

Going from `C[C@]12C[C@@H]3C[C@](C)(C1)C[C@@](NC(=O)Nc1ccc(CN4CCC(C(=O)N(CCO)CCO)CC4)cc1F)(C3)C2` [E5, 1-(4-(3-((1r,7r)-3,5-Dimethyladamantan-1-yl)ureido)-3-fluorobenzyl)-N,N-bis(2-hydroxyethyl)piperidine-4-carboxamide] to `C[C@]12C[C@@H]3C[C@](C)(C1)C[C@@](NC(=O)Nc1ccc(CN4CCC(C(N)=O)CC4)cc1F)(C3)C2` [E1, 1-(4-(3-((1r,7r)-3,5-Dimethyladamantan-1-yl)ureido)-3-fluorobenzyl)piperidine-4-carboxamide], the “LLE (ligand lipophilicity efficiency)” value falls from 5.585 to 5.557.

Going from `CCN(CC)C(=O)C1CCCN(Cc2ccc(NC(=O)N[C@@]34C[C@@H]5C[C@@](C)(C[C@@](C)(C5)C3)C4)c(F)c2)C1` (stereo partly drawn) [D3, 1-(4-(3-((1r,3R,5S,7r)-3,5-Dimethyladamantan-1-yl)ureido)-3-fluorobenzyl)-N,N-diethylpiperidine-3-carboxamide] to `CN(C)C(=O)C1CCCN(Cc2ccc(NC(=O)N[C@@]34C[C@@H]5C[C@@](C)(C[C@@](C)(C5)C3)C4)c(F)c2)C1` (stereo partly drawn) [D2, 1-(4-(3-((1r,3R,5S,7r)-3,5-Dimethyladamantan-1-yl)ureido)-3-fluorobenzyl)-N,N-dimethylpiperidine-3-carboxamide], the “LLE (ligand lipophilicity efficiency)” value rises from 4.957 to 5.354.

Going from `CC(CN(C)C)N1CCC(CC(=O)N2CCCN(C(=O)c3ccc(NC(=O)N[C@@]45C[C@@H]6C[C@@](C)(C[C@@](C)(C6)C4)C5)c(F)c3)CC2)CC1` (stereo partly drawn) [H4, 1-((1r,3R,5S,7r)-3,5-Dimethyladamantan-1-yl)-3-(4-(4-(2-(1-(1-(dimethylamino)propan-2-yl)piperidin-4-yl)acetyl)-1,4-diazepane-1-carbonyl)-2-fluorophenyl)urea] to `CCC(C)C(=O)N1CCC(CC(=O)N2CCCN(Cc3ccc(NC(=O)N[C@@]45C[C@@H]6C[C@@](C)(C[C@@](C)(C6)C4)C5)c(F)c3)CC2)CC1` (stereo partly drawn) [I3, 1-((1r,3R,5S,7r)-3,5-Dimethyladamantan-1-yl)-3-(2-fluoro-4-((4-(2-(1-(2-methylbutanoyl)piperidin-4-yl)acetyl)-1,4-diazepan-1-yl)methyl)phenyl)urea], the “LLE (ligand lipophilicity efficiency)” value rises from 3.920 to 4.337.

First: CC(=O)N1CCCN(C(=O)C2CCCN(C(=O)c3ccc(NC(=O)N[C@@]45C[C@@H]6C[C@@](C)(C[C@@](C)(C6)C4)C5)c(F)c3)C2)CC1 (stereo partly drawn) [F1, 1-(4-(3-(4-Acetyl-1,4-diazepane-1-carbonyl)piperidine-1-carbonyl)-2-fluorophenyl)-3-((1r,3R,5S,7r)-3,5-dimethyladamantan-1-yl)urea]
Second: CCN(CC)C(=O)C1CCCN(C(=O)c2ccc(NC(=O)N[C@]34C[C@@H]5C[C@@](C)(C[C@@](C)(C5)C3)C4)c(F)c2)C1 (stereo partly drawn) [B1, 1-(4-(3-((1r,3R,5S,7S)-3,5-Dimethyladamantan-1-yl)ureido)-3-fluorobenzoyl)-N,N-diethylpiperidine-3-carboxamide]
The “LLE (ligand lipophilicity efficiency)” value of the first is higher: 6.801 for the first, 5.617 for the second.

Compared with `C[C@]12C[C@@H]3C[C@](C)(C1)C[C@@](NC(=O)Nc1ccc(CN4CCCC(C(N)=O)C4)cc1F)(C3)C2` (stereo partly drawn) [D1, 1-(4-(3-((1r,3R,5S,7r)-3,5-Dimethyladamantan-1-yl)ureido)-3-fluorobenzyl)piperidine −3-carboxamide], `C[C@]12C[C@@H]3C[C@](C)(C1)C[C@@](NC(=O)Nc1ccc(CN4CCCC(C(=O)N5CCN(CCO)CC5)C4)cc1F)(C3)C2` (stereo partly drawn) [D9, 1-((1r,3R,5S,7r)-3,5-Dimethyladamantan-1-yl)-3-(2-fluoro-4-((3-(4-(2-hydroxyethyl)piperazine-1-carbonyl)piperidin-1-yl)methyl)phenyl)urea] is lower in “LLE (ligand lipophilicity efficiency)” value: 6.464 for the first, 5.790 for the second.

For `CN(C)CCN1CCC(CC(=O)N2CCCN(Cc3ccc(NC(=O)N[C@@]45C[C@@H]6C[C@@](C)(C[C@@](C)(C6)C4)C5)c(F)c3)CC2)CC1` [I7, 1-((1r,3R,5S,7r)-3,5-Dimethyladamantan-1-yl)-3-(4-((4-(2-(1-(2-(dimethylamino)ethyl)piperidin-4-yl)acetyl)-1,4-diazepan-1-yl)methyl)-2-fluorophenyl)urea], the “LLE (ligand lipophilicity efficiency)” value was 4.517.

Tested on: CFA-induced AIA mice
Test: CFA-induced arthritis
Assay type: in vivo, Kunming mice
Details: 10 mg / kg ip

In the case of `Cc1ccc(-c2cc(C(F)(F)F)nn2-c2ccc(S(N)(=O)=O)cc2)cc1` [celecoxib, reference compound], the “reduced foot swelling, thickness” value is reported as 17.99%.

`Cc1ccc(-c2cc(C(F)(F)F)nn2-c2ccc(S(N)(=O)=O)cc2)cc1` [celecoxib, reference compound] was tested, and the “reduced foot swelling, width” value was 6.4%.

Same assay, conditions: 10 mg / kg ip, 24 h of drug treatment

In the case of `Cc1ccc(-c2cc(C(F)(F)F)nn2-c2ccc(S(N)(=O)=O)cc2)cc1` [celecoxib, reference compound], the body weight change is reported as “increase in body weight”.

Same assay, conditions: 10 mg / kg ip, hot plate

`Cc1ccc(-c2cc(C(F)(F)F)nn2-c2ccc(S(N)(=O)=O)cc2)cc1` [celecoxib, reference compound] was tested, and the “effect on pain threshold, in words” value was “did not significantly raise the pain threshold at 2 h”.
